Data: ChEMBL document CHEMBL1949602, “Bacterial biofilm formation inhibitory activity revealed for plant derived natural compounds” (Bioorg Med Chem, 2012)
≈ marks a conversion by molar mass, not a printed value. Calls of active or inactive are those of the source. The calls are words filed in the database; no cut-off is given here.

What was measured:
Staphylococcus aureus [1] = experiment: Antibacterial activity against Staphylococcus aureus ATCC 6538P assessed as inhibition of planktonic growth at sub-MIC measured up to 25 hrs; format: functional, organism-based
[2] = tested on: Staphylococcus epidermidis; experiment: Antibacterial activity against Staphylococcus epidermidis ATCC 35984 assessed as inhibition of biofilm formation after 24 hrs by crystal violet staining; format: functional, organism-based; details: ATCC 35984, 24 h
Staphylococcus aureus [3] = experiment: Antibacterial activity against Staphylococcus aureus ATCC 6538P assessed as change in bacterial surface protein level at sub-MIC by zymographic analysis; format: functional, organism-based
[4] = tested on: Staphylococcus epidermidis; experiment: Antibacterial activity against Staphylococcus epidermidis ATCC 35984 incubated in drug free medium for 18 hrs after MIC determination by broth microdilution method; format: functional; details: ATCC 35984, 18 h
Staphylococcus aureus [5] = experiment: Antibacterial activity against Staphylococcus aureus ATCC 6538P assessed as inhibition of biofilm formation after 24 hrs by crystal violet staining; format: functional, organism-based
[6] = tested on: Staphylococcus epidermidis; experiment: Antibacterial activity against Staphylococcus epidermidis ATCC 35984 by broth microdilution method; format: functional
[7] = tested on: Staphylococcus epidermidis; experiment: Antibacterial activity against Staphylococcus epidermidis ATCC 35984 assessed as modification of bacterial surface protein pattern at 14 uM by zymographic analysis; format: functional, organism-based
Staphylococcus aureus [8] = experiment: Antibacterial activity against Staphylococcus aureus ATCC 6538P incubated in drug free medium for 18 hrs after MIC determination by broth microdilution method; format: functional
Staphylococcus aureus [9] = experiment: Antibacterial activity against Staphylococcus aureus ATCC 6538P by broth microdilution method; format: functional
Staphylococcus aureus [10] = experiment: Antibacterial activity against Staphylococcus aureus ATCC 6538P assessed as change in bacterial surface protein level at sub-MIC by SDS-PAGE analysis; format: functional, organism-based
[11] = tested on: Staphylococcus epidermidis; experiment: Antibacterial activity against Staphylococcus epidermidis ATCC 35984 assessed as inhibition of planktonic growth at sub-MIC measured up to 25 hrs; format: functional, organism-based
[12] = tested on: Staphylococcus epidermidis; experiment: Antibacterial activity against Staphylococcus epidermidis ATCC 35984 assessed as modification of bacterial surface protein pattern at 4 uM by zymographic analysis; format: functional, organism-based
[13] = tested on: Staphylococcus epidermidis; experiment: Antibacterial activity against Staphylococcus epidermidis ATCC 35984 assessed as disappearance of bacterial surface protein level at sub-MIC by SDS-PAGE analysis; format: functional, organism-based
[14] = tested on: Staphylococcus epidermidis; experiment: Antibacterial activity against Staphylococcus epidermidis ATCC 35984 assessed as disappearance of bacterial surface proteins level at sub-MIC by zymographic analysis; format: functional, organism-based
[15] = Ratio of MIC for Staphylococcus aureus ATCC 6538P to MIC for Staphylococcus epidermidis ATCC 35984; format: functional
[16] = tested on: Staphylococcus epidermidis; experiment: Antibacterial activity against Staphylococcus epidermidis ATCC 35984 assessed as modification of bacterial surface protein pattern at 8 uM by zymographic analysis; format: functional, organism-based

SMILES: Oc1ccc(-c2cc3ccccc3o2)c(O)c1
- Activity (Staphylococcus aureus [1]): inactive
- EC50 [2]: 23.5 µM
- Activity (Staphylococcus aureus [3]): inactive
- MBC [4]: 55.3 µM (≈ 12.5 µg/mL)
- EC50 (Staphylococcus aureus [5]): 8.2 µM
- MIC [6]: 55.3 µM (≈ 12.5 µg/mL)
- Activity [7]: inactive
- MBC (Staphylococcus aureus [8]): 55.3 µM (≈ 12.5 µg/mL)
- MIC (Staphylococcus aureus [9]): 55.3 µM (≈ 12.5 µg/mL)
- Activity (Staphylococcus aureus [10]): inactive
- Activity [11]: inactive

SMILES: COc1ccc2c(c[n+](C)c3c4cc5c(cc4ccc23)OCO5)c1OC [CHELERYTHRINE CHLORIDE]
- Activity (Staphylococcus aureus [1]): inactive
- EC50 [2]: 8.6 µM
- Activity [12]: inactive
- Activity (Staphylococcus aureus [3]): inactive
- MBC [4]: > 260 µM
- EC50 (Staphylococcus aureus [5]): 15.2 µM
- MIC [6]: 16.3 µM
- MBC (Staphylococcus aureus [8]): > 260 µM
- MIC (Staphylococcus aureus [9]): 16.3 µM
- Activity (Staphylococcus aureus [10]): inactive
- Activity [11]: inactive

SMILES: Oc1cc(O)c2c(c1)O[C@@]1(c3ccc(O)c(O)c3)Oc3cc(O)c4c(c3[C@@H]2[C@H]1O)O[C@H](c1ccc(O)c(O)c1)[C@H](O)C4 [PROANTHOCYANIDIN A2]
- Activity [13]: Active
- Activity (Staphylococcus aureus [1]): inactive
- EC50 [2]: 7.6 µM
- Activity [14]: Active
- Activity (Staphylococcus aureus [3]): inactive
- MBC [4]: > 169 µM
- EC50 (Staphylococcus aureus [5]): 6.9 µM
- MIC [6]: > 169 µM
- MBC (Staphylococcus aureus [8]): > 169 µM
- MIC (Staphylococcus aureus [9]): > 169 µM
- Activity (Staphylococcus aureus [10]): inactive
- Activity [11]: inactive

SMILES: C[n+]1cc2c3c(ccc2c2ccc4cc5c(cc4c21)OCO5)OCO3 [SANGUINARIUM]
- Activity [13]: Active
- Ratio [15]: 4
- Activity (Staphylococcus aureus [1]): inactive
- EC50 [2]: 4.4 µM
- Activity (Staphylococcus aureus [3]): inactive
- MBC [4]: 34 µM
- EC50 (Staphylococcus aureus [5]): 24.5 µM
- MIC [6]: 8.5 µM
- MBC (Staphylococcus aureus [8]): 34 µM
- MIC (Staphylococcus aureus [9]): 34 µM
- Activity [16]: inactive
- Activity (Staphylococcus aureus [10]): inactive
- Activity [11]: inactive
